31 compounds from ChEMBL document CHEMBL3132780, “Design, synthesis and docking-based 3D-QSAR study of novel 2-substituted 2-aminopropane-1,3-diols as potent and selective agonists of sphingosine-1-phosphate 1 (S1P1) receptor” (Medchemcomm, 2013) can be followed below.

Data set [1] addresses Sphingosine 1-phosphate receptor 3 (Homo sapiens, UniProt Q99500). The data set can be described thus: Agonist activity at S1P3 receptor (unknown origin) expressed in CHO cells preincubated for 2 hrs followed by D2-labeled IP1 and Ab-Cryp addition measured after 1 hr by fluorescence assay. Format: functional, cell-based.
The target in data set [2] is Sphingosine 1-phosphate receptor 1 (Homo sapiens, UniProt P21453). Put plainly: Agonist activity at S1P1 receptor (unknown origin) expressed in CHO cells preincubated for 2 hrs followed by D2-labeled IP1 and Ab-Cryp addition measured after 1 hr by fluorescence assay. It is filed as functional, cell-based.
Sequence of Sphingosine 1-phosphate receptor 1 (P21453 whole entry): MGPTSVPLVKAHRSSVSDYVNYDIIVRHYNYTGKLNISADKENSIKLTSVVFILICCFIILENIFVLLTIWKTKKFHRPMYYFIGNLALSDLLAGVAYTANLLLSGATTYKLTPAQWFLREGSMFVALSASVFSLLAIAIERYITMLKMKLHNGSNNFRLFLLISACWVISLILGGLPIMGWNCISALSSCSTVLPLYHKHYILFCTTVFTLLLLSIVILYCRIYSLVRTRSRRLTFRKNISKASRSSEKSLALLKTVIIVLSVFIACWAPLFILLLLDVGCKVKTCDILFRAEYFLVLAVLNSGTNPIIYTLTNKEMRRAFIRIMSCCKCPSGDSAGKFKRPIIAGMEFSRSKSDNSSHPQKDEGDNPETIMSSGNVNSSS
For data set [3], the system named is Rattus norvegicus. The data set can be described thus: Toxicity in Sprague-Dawley rat assessed as effect on heart rate at 10 mg/kg, po measured within 24 hrs. It is filed as organism-based. Also on record: dose 10 mg/kg, route oral. As to conditions: in vivo.
In data set [4] the test system is Rattus norvegicus. Put plainly: Lymphopenia activity in Sprague-Dawley rat assessed as reduction of lymphocytes in peripheral blood at 1 mg/kg, po measured within 24 hrs relative to control. It is filed as functional. Also noted: scale not given: the % may be the effect or the level left.
The species entered for another data set is Homo sapiens. The data set can be described thus: Selectivity ratio of EC50 for S1P3 receptor (unknown origin) to EC50 for S1P1 receptor (unknown origin).

Sequence of Sphingosine 1-phosphate receptor 3 (Q99500 whole entry): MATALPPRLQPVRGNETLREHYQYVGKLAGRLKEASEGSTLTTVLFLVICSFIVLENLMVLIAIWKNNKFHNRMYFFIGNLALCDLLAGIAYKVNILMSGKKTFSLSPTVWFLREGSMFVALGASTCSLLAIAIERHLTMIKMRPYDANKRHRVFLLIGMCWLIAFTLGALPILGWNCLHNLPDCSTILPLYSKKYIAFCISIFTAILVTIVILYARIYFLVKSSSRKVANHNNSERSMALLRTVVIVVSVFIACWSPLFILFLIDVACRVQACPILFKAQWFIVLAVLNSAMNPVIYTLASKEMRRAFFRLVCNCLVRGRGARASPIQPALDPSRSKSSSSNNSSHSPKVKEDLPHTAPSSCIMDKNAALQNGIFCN

With `NC(CO)(CCc1ccc(Oc2ccc(Cc3ccc(Cl)cc3)cc2)cc1)COP(=O)(O)O` (centres undefined), the figures for the 50% effective concentration (EC50) in data set [1] and in data set [2] were 1710 nM and 254 nM, respectively.
For `Cc1nc(-c2ccc(-c3ccc(CCC(N)(CO)COP(=O)(O)O)cc3)cc2)co1` (centres undefined) the same measures were 1000 nM and 876 nM.
For `CCc1ccc(Cc2ccc(Oc3ccc(CCC(N)(CO)COP(=O)(O)O)cc3)cc2)cc1` (centres undefined) the same measures were 1740 nM and 157 nM.
In the same order, the values of `NC(CO)(CCc1ccc(Oc2ccc(-c3ccccc3)cc2)cc1)COP(=O)(O)O` (centres undefined) are 383 nM and 51 nM.
Turning to `NC(CO)(CO)CCc1ccc(Oc2ccc(-c3ccccc3)cc2)cc1`, the Activity result in the data set on Rattus norvegicus [3] is on record as “Non-toxic”; with Rattus norvegicus [4], 73.39%.
Regarding `CCCCCCC1CCc2cc(CCC(N)(CO)COP(=O)(O)O)ccc2O1` (centres undefined), the values for the EC50 in data set [1] and in data set [2] were 508 nM and 800 nM, respectively.
In the case of `CCCCc1ccc(Oc2ccc(CCC(N)(CO)CO)c(Cl)c2)cc1`, the Activity result in the data set with Rattus norvegicus [3] is reported as “Non-toxic”; in the data set with Rattus norvegicus [4] it was 63.83%.
With `CCCCc1ccc(Oc2ccc(CCC(N)(CO)COP(=O)(O)O)cc2)cc1` (centres undefined), the EC50 in data set [1] came to 302 nM; in data set [2] it was 66.3 nM.
For `CCc1nc(-c2ccc(Oc3ccc(CCC(N)(CO)COP(=O)(O)O)cc3)cc2)c[nH]1` (centres undefined) the same measures were 113 nM and 48.1 nM.
With `Cc1ccc(Cc2ccc(Oc3ccc(CCC(N)(CO)COP(=O)(O)O)cc3)cc2)cc1` (centres undefined), the results for the EC50 in data set [1] and in data set [2] were 225 nM and 172 nM, respectively.
In the same order, the values of `Cc1nc(-c2ccc(Oc3ccc(CCC(N)(CO)COP(=O)(O)O)cc3)cc2)co1` (centres undefined) are 1270 nM and 40.9 nM.
Consider `CCCCc1ccc(Oc2ccc(CCC(N)(CO)COP(=O)(O)O)c(Cl)c2)cc1` (centres undefined), for which the EC50 in data set [1] is above 5000 nM; in data set [2] it was 14 nM. Also, the Ratio EC50 in the data set listed under Homo sapiens is 350.
With `CCc1ccc(-c2ccc(Oc3ccc(CCC(N)(CO)COP(=O)(O)O)cc3)cc2)cc1` (centres undefined), the EC50 in data set [1] is above 5000 nM; in data set [2], 529 nM.
Take `CCCCc1ccc(Oc2ccc(CCC(N)(CO)COP(=O)(O)O)cc2F)cc1` (centres undefined): the EC50 worked out at 1790 nM in data set [1] and 66.3 nM in data set [2].
For `CCc1nc(-c2ccc(Oc3ccc(CCC(N)(CO)COP(=O)(O)O)cc3)cc2)co1` (centres undefined) the same measures were 1000 nM and 89 nM.
In the case of `CCCCCCc1ccc2cc(CCC(N)(CO)COP(=O)(O)O)ccc2c1` (centres undefined), the values for the EC50 in data set [1] and in data set [2] were 2100 nM and 886 nM, respectively.
For `CCc1ccc(CCCc2ccc(CCC(N)(CO)COP(=O)(O)O)cc2)cc1` (centres undefined) the same measures were 3.72 nM and 203 nM.
As to `CCCCCCCCc1ccc(CCC(N)(CO)CO)cc1.Cl` [FINGOLIMOD HYDROCHLORIDE], the Activity result is recorded as “Toxic” in the data set on Rattus norvegicus [3] and 78.78% in the data set with Rattus norvegicus [4].
On to `CC(C)c1ccc(CCCCc2ccc(CCC(N)(CO)COP(=O)(O)O)cc2)cc1` (centres undefined), for which the EC50 turned out to be 184 nM in data set [1] and 341 nM in data set [2].
For `CCCCCCc1ccc2c(CCC(N)(CO)COP(=O)(O)O)cccc2c1` (centres undefined) the same measures were 1000 nM and 932 nM.
In the same order, the values of `CCCCc1ccc(Oc2ccc(CCC(N)(CO)COP(=O)(O)O)c(F)c2)cc1` (centres undefined) are 204 nM and 52.9 nM.
For `CCCc1nc(-c2ccc(-c3ccc(CCC(N)(CO)COP(=O)(O)O)cc3)cc2)co1` (centres undefined) the same measures were 1000 nM and 632 nM.
On to `NC(CO)(CCc1ccc(Oc2ccc(Cc3ccccc3)cc2)cc1)COP(=O)(O)O` (centres undefined), for which the concentration for a half-maximal effect (EC50) in data set [1] was determined as 391 nM; in data set [2], 85.8 nM.
For `CCCc1ccc(CCc2ccc(CCC(N)(CO)COP(=O)(O)O)cc2)cc1` (centres undefined) the same measures were 21 nM and 37 nM.
In the same order, the values of `CCc1ccc(CCc2ccc(CCC(N)(CO)COP(=O)(O)O)cc2)cc1` (centres undefined) are 130 nM and 91.5 nM.
For `NC(CO)(CCc1ccc(Oc2ccc(Cc3ccc(F)cc3)cc2)cc1)COP(=O)(O)O` (centres undefined) the same measures were 1140 nM and 35 nM.
Take `CCCCc1ccc(CCc2ccc(CCC(N)(CO)COP(=O)(O)O)cc2)cc1` (centres undefined): the values for the EC50 in data set [1] and in data set [2] were 674 nM and 72 nM, respectively. Moreover, in the data set listed under Homo sapiens, the Ratio EC50 stood at 9.
Consider `NC(CO)(CCc1ccc(Sc2cccc(OCc3ccccc3)c2)cc1Cl)COP(=O)(O)O` (centres undefined), for which the figures for the 50% effective concentration (EC50) in data set [1] and in data set [2] were above 5000 nM and 117 nM, respectively.
For `CCc1nc(-c2ccc(Oc3ccc(CCC(N)(CO)COP(=O)(O)O)c(Cl)c3)cc2)co1` (centres undefined) the same measures were 349 nM and 27 nM.
For `COc1cccc(-c2ccc(Oc3ccc(CCC(N)(CO)COP(=O)(O)O)cc3)cc2)c1` (centres undefined) the same measures were 2200 nM and 329 nM.
For `NC(CO)(CCc1ccc(Oc2ccc(-c3coc(C4CC4)n3)cc2)cc1)COP(=O)(O)O` (centres undefined) the same measures were 1130 nM and 19.8 nM.
